Results on 28 compounds are retold here after the supplement of paper PMC12613149.

A short description of data set [1]: collision cross section (TIMS, N2 drift gas) of the primary ion; higher = larger gas-phase ion size.
Data set [2] is described as follows: reversed-phase LC retention time (C18, 15 min MeOH gradient); higher = more hydrophobic / later elution.
Setting [3] is: ionization mode: ESI-, ion species: [M-H]-.
[4] abbreviates: ionization mode: ESI+, ion species: [M+H]+.
Setting [5] is: ionization mode: ESI+, ion species: [M]+.

Take `CC(C)c1ccc2c(c1)CC[C@H]1[C@](C)(C(=O)O)CCC[C@]21C` [Dehydroabietic acid]: the collision cross section in data set [1] (setting [3]) was determined as 184.43 Å². Further, in data set [2] (setting [3]), the “reversed-phase LC retention time” value is 16.5 min.

The compound `CC(C)(C)C(=O)C(Oc1ccc(Cl)cc1)n1ccnc1` (centres undefined) [Climbazole] returned a collision cross section in data set [1] (setting [4]) of 172.6 Å². The “reversed-phase LC retention time” value in data set [2] (setting [4]) came out at 13.1 min.

`NS(=O)(=O)c1cc(C(=O)O)c(NCc2ccco2)cc1Cl` [Furosemide]: the collision cross section came to 161.99 Å² in data set [1] (setting [4]) and 172.55 Å² in data set [1] (setting [3]). The results for the “reversed-phase LC retention time” value in data set [2] (setting [4]) and in data set [2] (setting [3]) were 14.3 min and 9.47 min, respectively.

Turning to `CN(C)S(=O)(=O)c1ccc(N)cc1` [4-Amino-N,N-dimethylbenzenesulfonamide], the collision cross section in data set [1] (setting [4]) came to 138.47 Å²; in data set [1] (setting [3]) it was 137.21 Å². Moreover, the “reversed-phase LC retention time” value in data set [2] (setting [4]) came to 7.89 min; in data set [2] (setting [3]), 7.97 min.

In turn, `CC(C)(c1ccc(O)c(-c2ccccc2)c1)c1ccc(O)c(-c2ccccc2)c1` [Bisphenol PH] yielded a collision cross section in data set [1] (setting [3]) of 204.63 Å². Moreover, the “reversed-phase LC retention time” value in data set [2] (setting [3]) turned out to be 17.2 min.

Regarding `Nc1ccc(S(=O)(=O)Nc2nccs2)cc1` [Sulfathiazole], the collision cross section in data set [1] (setting [4]) is 153.27 Å²; in data set [1] (setting [3]), 152.72 Å². The “reversed-phase LC retention time” value in data set [2] (setting [4]) amounted to 6.39 min; in data set [2] (setting [3]), 5.71 min.

For the compound `O=C(c1ccccc1)c1ccc(O)cc1O` [2,4-Dihydroxybenzophenone], in data set [1] (setting [3]), the collision cross section is reported as 146.26 Å². In addition, the “reversed-phase LC retention time” value in data set [2] (setting [3]) was found to be 11.7 min.

Turning to `CC1CCc2cc(F)cc3c(=O)c(C(=O)O)cn1c23` (centres undefined) [Flumequine], the collision cross section was 152.91 Å² in data set [1] (setting [4]) and 166.14 Å² in data set [1] (setting [3]). In addition, the entries for the “reversed-phase LC retention time” value in data set [2] (setting [4]) and in data set [2] (setting [3]) were 11.7 min and 9.17 min, respectively.

`CC1(C)CC(N)CC(C)(CN)C1` (centres undefined) [Isophorone diamine]: the collision cross section in data set [1] (setting [4]) is reported as 141.08 Å². Further, the “reversed-phase LC retention time” value in data set [2] (setting [4]) is 1.84 min.

In the case of `CCCCC(=O)O[C@]1(C(=O)CO)[C@@H](C)C[C@H]2[C@@H]3CCC4=CC(=O)C=C[C@]4(C)[C@@]3(F)[C@@H](O)C[C@@]21C` [Betamethasone-17-valerate], the collision cross section in data set [1] (setting [4]) turned out to be 216.68 Å²; in data set [1] (setting [3]), 216.5 Å². For the same compound, the results for the “reversed-phase LC retention time” value in data set [2] (setting [4]) and in data set [2] (setting [3]) were 15.5 min and 16 min, respectively.

In turn, `CCCC[N+](CCCC)(CCCC)CCCC` [Tetrabutylammonium] yielded a collision cross section in data set [1] (setting [5]) of 167.79 Å². Besides, the “reversed-phase LC retention time” value in data set [2] (setting [5]) was determined as 11 min.

`CCCCC(CC)COC(=O)c1ccccc1C(=O)OCC(CC)CCCC` (centres undefined) [Bis(2-ethylhexyl)phthalate]: the collision cross section in data set [1] (setting [4]) worked out at 212.9 Å². Moreover, in data set [2] (setting [4]), the “reversed-phase LC retention time” value came out at 19.1 min.

`COC(=O)c1cc(C(=O)OC)cc(S(=O)(=O)O)c1` [Dimethyl-5-sulfoisophthalate] yielded a collision cross section in data set [1] (setting [3]) of 162.37 Å². Moreover, the “reversed-phase LC retention time” value in data set [2] (setting [3]) stood at 8.33 min.

On to `COc1cc(OC)nc(NC(=O)NS(=O)(=O)N(C)S(C)(=O)=O)n1` [Amidosulfuron], for which the collision cross section in data set [1] (setting [4]) worked out at 175.88 Å²; in data set [1] (setting [3]), 179.05 Å². Moreover, the figures for the “reversed-phase LC retention time” value in data set [2] (setting [4]) and in data set [2] (setting [3]) were 12.1 min and 8.09 min, respectively.

For `CCNc1nc(NC(C)(C)C)nc(SC)n1` [Terbutryn], the collision cross section in data set [1] (setting [4]) amounted to 160.25 Å². For the same compound, in data set [2] (setting [4]), the “reversed-phase LC retention time” value amounted to 14 min.

For `Cc1cc(-c2ccc(N)c(C)c2)ccc1N` [o-Tolidine], in data set [1] (setting [4]), the collision cross section stood at 165.69 Å². The “reversed-phase LC retention time” value in data set [2] (setting [4]) turned out to be 7.76 min.

As for `CC1=NNC(=O)N(/N=C/c2cccnc2)C1` [Pymetrozine], the collision cross section in data set [1] (setting [4]) is 153.68 Å². The “reversed-phase LC retention time” value in data set [2] (setting [4]) turned out to be 5.8 min.

In data set [1] (setting [4]), `CON(C)C(=O)Nc1ccc(Br)cc1` [Metobromuron] returned a collision cross section of 148.37 Å². The “reversed-phase LC retention time” value in data set [2] (setting [4]) was 12.6 min.

In turn, `CCCCCCCCCCCCCCCCCCN` [1-Octadecylamine] displayed a collision cross section in data set [1] (setting [4]) of 184.09 Å². In data set [2] (setting [4]), the “reversed-phase LC retention time” value worked out at 18.4 min.

In data set [1] (setting [4]), `Nc1nnc(-c2cccc(Cl)c2Cl)c(N)n1` [Lamotrigine] registered a collision cross section of 153.91 Å². For the same compound, the “reversed-phase LC retention time” value in data set [2] (setting [4]) was found to be 9.33 min.

`C[C@H](CCC(=O)O)[C@H]1CC[C@H]2[C@@H]3CC[C@@H]4C[C@H](O)CC[C@]4(C)[C@H]3C[C@H](O)[C@]12C` [Deoxycholic acid] returned a collision cross section in data set [1] (setting [3]) of 203 Å². In data set [2] (setting [3]), the “reversed-phase LC retention time” value stood at 15.8 min.

In data set [1] (setting [3]), `Oc1ccc2c(c1)C13CCCCC1(O)C(C2)N(CC1CCC1)CC3` (centres undefined) [Butorphanol] came in with a collision cross section of 188.37 Å². The “reversed-phase LC retention time” value in data set [2] (setting [3]) was 16.6 min.

With `CC1OC(OCC2OC(Oc3c(-c4ccc(O)c(O)c4)oc4cc(O)cc(O)c4c3=O)C(O)C(O)C2O)C(O)C(O)C1O` (centres undefined) [Rutin], the collision cross section was 233.31 Å² in data set [1] (setting [4]) and 232.48 Å² in data set [1] (setting [3]). Further, the “reversed-phase LC retention time” value was 9.72 min in data set [2] (setting [4]) and 8.1 min in data set [2] (setting [3]).

`CCS(=O)CCSP(=O)(OC)OC` (centres undefined) [Demeton-S-methyl sulfoxide] gave a collision cross section in data set [1] (setting [4]) of 142.73 Å². Moreover, the “reversed-phase LC retention time” value in data set [2] (setting [4]) came to 7.58 min.

Regarding `Oc1ccc(C2(c3ccc(O)cc3)CCCCC2)cc1` [Bisphenol Z], the collision cross section in data set [1] (setting [3]) is 173.12 Å². For the same compound, in data set [2] (setting [3]), the “reversed-phase LC retention time” value stood at 15.3 min.

Consider `O=C(O)CCCCCCCCC(=O)O` [Sebacic acid], for which the results for the collision cross section in data set [1] (setting [4]) and in data set [1] (setting [3]) were 176.16 Å² and 142.73 Å², respectively. Further, the “reversed-phase LC retention time” value came to 17 min in data set [2] (setting [4]) and 3.2 min in data set [2] (setting [3]).

For the compound `CO/C=C(/C(=O)OC)c1ccccc1COc1cccc(C(F)(F)F)n1` [Picoxystrobin], the collision cross section in data set [1] (setting [4]) is 174.95 Å². For the same compound, the “reversed-phase LC retention time” value in data set [2] (setting [4]) came out at 15.2 min.

On to `CC[C@H](C)[C@H]1O[C@]2(C=C[C@@H]1C)C[C@@H]1C[C@@H](C/C=C(\C)[C@@H](O[C@H]3C[C@H](OC)[C@@H](O[C@H]4C[C@H](OC)[C@@H](NC)[C@H](C)O4)[C@H](C)O3)[C@@H](C)/C=C/C=C3\CO[C@@H]4[C@H](O)C(C)=C[C@@H](C(=O)O1)[C@]34O)O2` [Emamectin B1a], for which the collision cross section was found to be 283.49 Å² in data set [1] (setting [4]) and 296.31 Å² in data set [1] (setting [3]). The “reversed-phase LC retention time” value was 17 min in data set [2] (setting [4]) and 18.9 min in data set [2] (setting [3]).
